Data on two compounds can be found in patent publication US20170285044A1, “METHODS FOR PREDICTING AND IMPROVING THE SURVIVAL OF GASTRIC CANCER PATIENTS” (Pierian Holdings, Inc., priority 2011, published 2017).

Molecules are shown by their SMILES.

The subject of assay [1] is MET-amplified SNU484 cells. Format: cell-based, human. The note with it: FIG. 12.
Description: (§1) Multiple Drug Effect Analysis: ˜1 X10^4 cells were plated in 24-well plate and grown in appropriate growth media. Lapatinib, cMET inhibitor or both agents (combo) were added at 1 μM concentration for 4 hrs and lysed for subsequent pathway profiling.
(§2) Immuno-microarray slides were rinsed 2× with TB ST (50 mM Tris/150 mM NaCl/0.1% Tween-20, pH 7.2-7.4), blocked with 80 μL Whatman Blocking Buffer lhr at RT, then washed 2× with TBST. Serially diluted lysate controls in 80 μL dilution buffer (2% BSA/0.1% TritonX-100/TBS, pH 7.2-7.4) and samples were added to designated sub-arrays on slides, then incubated 1 hour at RT. Slides were washed 4× (3 min. each), and detector Abs were added in 80 μL of reaction buffer and incubated for 2 hours at RT. After washing slides with TB ST to remove unbound detector Abs, 80 μL of biotin-tyramide solution (5 μg/m1 in 50 mM glucose/PBS) prepared from 400 μg/mL in ethanol solution (Perkin-Elmer Life Science) was added and incubated 15 min in darkness. Glucose-oxidase (GO)/HRP-mediated tyramide signal amplification process was terminated by washing with TBST 4×, 3 min each. Local deposition of biotin-tyramide was detected by incubation with streptavidin (SA)-Alexa647 (Invitrogen) at 0.5 μg/mL in 2% BSA/0.1% Triton/TBS for 40 min. Upon completion of incubation, slides were washed 4× with TBST, dried and kept in darkness until imaged via microarray scanner. […]
The test system of another assay is NCI-87 cells. Format: cell-based, human. The note with it: without altering total HER2 levels, FIG. 12.
Assay [2] relates to unselected gastric cancer patients. The note with it: monotherapy; Jhawer et al., 2008; cited from earlier work.

Description for NCI-87 cells: as §1, §2

With `CS(=O)(=O)CCNCc1ccc(-c2ccc3ncnc(Nc4ccc(OCc5cccc(F)c5)c(Cl)c4)c3c2)o1` [lapatinib], the values for the HER2 activation entry (in assay [1]; with NCI-87 cells) were “unable to do so” and “abolished”, respectively. For the compound `COc1cc2c(Oc3ccc(NC(=O)C4(C(=O)Nc5ccc(F)cc5)CC4)cc3F)ccnc2cc1OCCCN1CCOCC1` [foretinib], the objective response entry in assay [2] is “failed to demonstrate an objective response”.
